Measured values taken from paper PMC5267425, “Identification of small molecule modulators of HIV-1 Tat and Rev protein accumulation” (Retrovirology, 2017).

Experiments:
Assay type in all cases: cell-based
[1] = Viable cell count by FSC/SSC gate, CEM-GXR; details: human, CEM-GXR cells infected with a Clade B HIV-1 strain
Description: (§1) To assess the activity of compounds against HIV-1 strains having resistance to various ART drugs, assays were performed in the context of CEM-GXR cells. These cells express CD4, CXCR4, and coreceptor, CCR5 as well as an exogenous Tat-driven LTR-GFP expression cassette. Cultures were infected with different HIV-1 strains of interest, differing on their subtypes (A and B), and resistance to three major drug targets (reverse transcriptase, protease, and integrase). The culture contains serial dilutions of the molecule in the final concentrations from 0.156 to 5 μM for 833; 725 nM to 46.87 μM for 791; 1.95 to 62.5 μM for 892. Antiviral activity was evaluated in the assay by measuring inhibition of HIV-1 spread in a coculture of CEM-GXR cells containing 1% of HIV-1 infected (GFP positive) cells using flow cytometric analysis (GuavaSoft 2.2 software, Guava HT8, Millipore). To estimate the viable cell counts, the gate in a flow cytometer (Guava HT8) was set to cover 95% of the freshly passaged uninfected CEM-GXR cell or using ViaCount™. The same parameter was employed to gate viable cells in the inhibition assay and the number of gated cells was obtained by GuavaSoft 2.2 software. For assays using ViaCount™, sample acquisition and data analysis were performed with the selection of EasyFit analysis feature using the ViaCount™ software module.

HIV-1 BaL = HIV-1 BaL replication in PBMCs, p24 antigen ELISA; details: for IC50: Human immunodeficiency virus 1, BAL, PBMC
Description: To examine the effect of compounds on viral replication, studies were carried out in peripheral blood mononuclear cells (PBMCs). PBMCs were isolated from healthy (HIV-uninfected) volunteer blood donors as described by Dobson-Belaire et al.. Informed consent was obtained from participants in accordance with the guidelines for conduct of clinical research at the University of Toronto and St. Michael’s Hospital, Toronto, Ontario, Canada. Stored PBMCs were thawed, washed with RPMI 1640 complete medium and cultured in RPMI 1640 complete medium containing 2 μg/mL of PHA-L (Sigma-Aldrich) and 20 U/mL of IL-2 (BD Pharmingen) for 72 h. Subsequently, cells were counted and a portion of the cells was separated to another tube for uninfected control treatments. The remaining PBMCs were resuspended in media containing HIV-1 BaL at a multiplicity of infection (MOI) of approximately 0.01 and infected by spinoculation, following which cells were washed twice with room temperature RPMI 1640 complete medium and resuspended to a concentration of 5 × 10^5 cells/mL in complete RPMI 1640 containing 20 U/mL of IL-2. Compounds were added to infected PBMCs or uninfected control PBMCs. Azidothymidine (AZT, Sigma-Aldrich) was used as control treatment at a final concentration of 3.74 μM. On day 4 post infection, culture medium was replenished with the compounds and IL-2 in fresh complete RPMI 1640. On days 2, 4, 6 and 8 post infection, culture supernatant was harvested, virus lysed by adjusting to 1% TritonX-100 and stored at −20 °C for p24 antigen ELISA. A fraction of the culture was harvested to assess percent cell viability by trypan blue exclusion using Glasstic slides (Kova). Relative percent cell viability in compound treated samples versus DMSO-control treated samples was calculated as follows: (total viable cells/total cells)compound/(total viable cells/total cells)DMSO.
ELISA for p24 Gag antigen was performed on cell supernatants using kits purchased from Frederick National Laboratory for Cancer Research (Leidos) or XpressBio extended range kit and performed according to manufacturer’s instructions. Protein concentration in cell lysates was quantified by Bradford assay and equal amounts of protein run on 7, 10, 12, or 14% SDS-PAGE, depending on the protein of interest. Following transfer to PVDF (BioRad or Perkin-Elmer), blots were blocked in either 5% Milk-PBS-T (5% Milk, 0.05% Tween-20, 1× PBS) or 3% BSA-PBS-T (3% BSA, 0.05% Tween-20, 1× PBS) prior to incubating with primary antibody (all diluted in 3% BSA-PBS-T). […] Quantification of the relative intensity of the detected bands was done using ImageLab software and normalized to corresponding bands of the loading control (GAPDH or α-Tubulin).

HeLa rtTA HIV∆Mls cells = assay: XTT cell metabolism/viability assay, HeLa; details: for cell viability at dose required to reduce Gag expression by >80%: XTT and Trypan blue exclusion, 791 20 µM, 833 10 µM
Description: Effects of compound treatment on cellular metabolism was assessed by an XTT-based in vitro toxicology assay kit (Sigma-Aldrich) or Trypan blue exclusion (Life Technologies) as proxy for degree of cytotoxicity and expressed relative to DMSO control treatment. For measurement of cell viability using XTT, culture media was removed after 24, 72, and 96 h of compound treatment, replaced with 20% XTT solution and incubated at 37 °C in a 5% CO2 humidified incubator for 2–6 h, and relative cell viability was measured in compound treated cells relative to DMSO-treated cells. Cell viability measurements in CEM-GXR cells are described above.

[2] = system: HIV-1 clade A (N54), clade B (IIIB), PRI-, RTI- and INI-resistant strains; assay: HIV-1 replication in CEM-GXR cells (GFP positive cells, flow cytometry); details: for IC50: Human immunodeficiency virus 1, IIIB, CEM-GXR; for HIV-1 replication of all viruses tested: clade A N54, clade B IIIB, PRI-, RTI-, INI-resistant strains
Description: Effects of compound treatment on HIV-1 gene expression were initially assessed in the context of HeLa rtTA HIV∆Mls cells stably transduced with an inducible Tet-On HIV-1 system (as previously described). The provirus was modified by either deletion in the reverse transcriptase and integrase region of the pol gene by an MlsI restriction digest (HeLa rtTA HIV∆Mls cell line) or GFP fusion to Gag, deleting the PR and RT-coding regions (HeLa rtTA HIVGagGFP cell line). […] All cell lines were maintained in Iscove’s modified Delbecco’s medium (IMDM; Wisent) supplemented with 10% (vol/vol) fetal bovine serum (FBS, Wisent), 1% penicillin/streptomycin (P/S, Wisent) and 0.2% Amphotericin B (Wisent). Indicator cell line CEM-GXR was obtained from Dr. Mark Brockman (Simon Fraser University). The RTI-resistant virus (E00443) was obtained from Dr. Zabrina Brumme (Simon Fraser University). The HIV-1 clade A (97USSN54 (N54)), HIV-1 clade B (IIIB), integrase inhibitor resistant virus (11845), protease inhibitor resistant virus (2948) were obtained through the NIH AIDS Research and Reference reagent program, Division of AIDS, NIAID, NIH).
as §1

SMILES | CC50 [1] | IC50 (HIV-1 BaL) | doses inhibiting HIV-1 virus production that did not affect cell viability (HIV-1 BaL; PBMCs, 2–4 donors) | toxicity on extended culture (cell proliferation by XTT) (HeLa rtTA HIV∆Mls cells; 1, 3 and 4 days post-treatment, in comparison to 833 and 892 (Figure S5)) | cell viability at dose required to reduce Gag expression by >80% (HeLa rtTA HIV∆Mls cells) | IC50 [2] | HIV-1 replication of all viruses tested [2] | mitochondrial function by XTT (HeLa rtTA HIV∆Mls cells; up to 10 µM)
Cc1cc(NCc2cccnc2)n2ncc(-c3ccc(Cl)cc3)c2n1 [Compound 791, 3-(4-chlorophenyl)-5-methyl-N-(3-pyridinylmethyl)pyrazolo[1,5-a]pyrimidin-7-amine] | > 12000 nM | 1500 nM | < 5 µM | reduced toxicity | not affected | 4500 nM | significant reductions | 
O=C(NC(=S)NNC(=O)c1ccccc1O)c1ccc(-c2ccccc2)cc1 [Compound 833, N-([2-(2-hydroxybenzoyl)hydrazino]carbonothioyl}-4-biphenylcarboxamide] | > 5000 nM | 1600 nM |  |  | not affected | 1000 nM | significant reductions | some reduction in mitochondrial function
COc1ccc(C=NNC(=O)c2ccccc2O)cc1O [Compound 892, 2-hydroxy-N′-(3-hydroxy-4-methoxybenzylidene)benzohydrazide] | 31000 nM | 2000 nM |  |  |  |  | only modest inhibitory activity | 
